± gives the expanded uncertainty stated by the source.
Legend:
[1] = xn = mol fraction of the nth substance listed; conditions: 101 kPa, Liquid; for speed of sound: Sing-around technique in a fixed-path interferometer; for mass density: Vibrating tube method
[2] = refractive index (Na D-line) (dimensionless); xn = mol fraction of the nth substance listed; conditions: 101 kPa, Liquid, Standard Abbe refractometry

CCCCCCn1cc[n+](C)c1.F[P-](F)(F)(F)(F)F [1-hexyl-3-methylimidazolium hexafluorophosphate] + CCOC(C)=O
Conditions	mass density, 293.15 K [kg/m3]	mass density, 298.15 K [kg/m3]	mass density, 303.15 K [kg/m3]	refractive index, 293.15 K	refractive index, 298.15 K	refractive index, 303.15 K	speed of sound, 293.15 K [m/s]	speed of sound, 298.15 K [m/s]	speed of sound, 303.15 K [m/s]
[1], x1 = 0.0506	952.6 ± 0.2	946.8 ± 0.2	941 ± 0.2	–	–	–	1185 ± 1	1163 ± 1	1142 ± 1
[1], x1 = 0.104	998.7 ± 0.2	993.2 ± 0.2	987.6 ± 0.2	–	–	–	1210 ± 2	1189 ± 2	1169 ± 2
[1], x1 = 0.1978	1063.8 ± 0.4	1058.6 ± 0.4	1053.4 ± 0.4	–	–	–	1252 ± 2	1233 ± 2	1215 ± 2
[1], x1 = 0.2924	1114.6 ± 0.7	1109.8 ± 0.7	1104.9 ± 0.7	–	–	–	1288 ± 2	1271 ± 2	1254 ± 2
[1], x1 = 0.4549	1179.7 ± 1.7	1175.2 ± 1.7	1170.5 ± 1.7	–	–	–	1335 ± 3	1320 ± 3	1305 ± 3
[1], x1 = 0.4974	1193.3 ± 2.1	1188.9 ± 2	1184.2 ± 2	–	–	–	1346 ± 3	1331 ± 3	1317 ± 3
[1], x1 = 0.5904	1219.5 ± 2.9	1215.2 ± 2.9	1210.7 ± 2.9	–	–	–	1366 ± 3	1352 ± 3	1338 ± 3
[1], x1 = 0.7015	1245.8 ± 4.2	1241.5 ± 4.2	1237.2 ± 4.2	–	–	–	1387 ± 4	1374 ± 4	1361 ± 4
[1], x1 = 0.7926	1263.8 ± 5.5	1259.8 ± 5.5	1255.6 ± 5.4	–	–	–	1403 ± 4	1390 ± 4	1378 ± 4
[1], x1 = 0.8941	1281.6 ± 7.2	1277.6 ± 7.1	1273.8 ± 7.1	–	–	–	1420 ± 5	1407 ± 5	1395 ± 5
[1], x1 = 0.9459	1289.8 ± 8.1	1285.8 ± 8.1	1282 ± 8	–	–	–	1429 ± 5	1415 ± 5	1403 ± 5
[1], x1 = 1	1297.9 ± 9.2	1293.7 ± 9.1	1289.6 ± 9.1	–	–	–	1438 ± 5	1424 ± 5	1411 ± 5
[2], x1 = 0.0506	–	–	–	1.38064 ± 0.00046	1.37838 ± 0.00056	1.37606 ± 0.0007	–	–	–
[2], x1 = 0.104	–	–	–	1.3874 ± 0.00044	1.38537 ± 0.00055	1.38312 ± 0.00071	–	–	–
[2], x1 = 0.1978	–	–	–	1.39645 ± 0.00045	1.39415 ± 0.00059	1.39194 ± 0.00073	–	–	–
[2], x1 = 0.2924	–	–	–	1.402 ± 0.00051	1.40007 ± 0.00059	1.39821 ± 0.00071	–	–	–
[2], x1 = 0.4549	–	–	–	1.40845 ± 0.00063	1.4069 ± 0.00065	1.40523 ± 0.00068	–	–	–
[2], x1 = 0.4974	–	–	–	1.40969 ± 0.00067	1.40821 ± 0.00068	1.40664 ± 0.0007	–	–	–
[2], x1 = 0.5904	–	–	–	1.41237 ± 0.00072	1.41083 ± 0.00076	1.40893 ± 0.00079	–	–	–
[2], x1 = 0.7015	–	–	–	1.41438 ± 0.00083	1.41296 ± 0.00083	1.4115 ± 0.00085	–	–	–
[2], x1 = 0.7926	–	–	–	1.41592 ± 0.0009	1.41446 ± 0.0009	1.41307 ± 0.00091	–	–	–
[2], x1 = 0.8941	–	–	–	1.41731 ± 0.00099	1.41594 ± 0.00099	1.41454 ± 0.00099	–	–	–
[2], x1 = 0.9459	–	–	–	1.41797 ± 0.001	1.41662 ± 0.001	1.41526 ± 0.001	–	–	–
[2], x1 = 1	–	–	–	1.41923 ± 0.0011	1.41787 ± 0.0011	1.41643 ± 0.0011	–	–	–

CCOC(C)=O [ethyl acetate] + CCCCCC
Conditions	mass density, 293.15 K [kg/m3]	mass density, 298.15 K [kg/m3]	mass density, 303.15 K [kg/m3]	refractive index, 293.15 K	refractive index, 298.15 K	refractive index, 303.15 K	speed of sound, 293.15 K [m/s]	speed of sound, 298.15 K [m/s]	speed of sound, 303.15 K [m/s]
[1], x2 = 0	900.5 ± 0.1	894.4 ± 0.1	888.2 ± 0.1	–	–	–	1162 ± 1	1141 ± 1	1111 ± 1
[1], x2 = 0.0469	884.3 ± 0.2	878.2 ± 0.2	872.2 ± 0.2	–	–	–	1152 ± 1	1129 ± 1	1099 ± 1
[1], x2 = 0.0969	868 ± 0.2	862 ± 0.2	855.9 ± 0.2	–	–	–	1141 ± 1	1119 ± 1	1089 ± 1
[1], x2 = 0.1898	838.9 ± 0.2	833.1 ± 0.2	827.3 ± 0.2	–	–	–	1125 ± 1	1103 ± 1	1074 ± 1
[1], x2 = 0.2962	808.6 ± 0.2	803 ± 0.2	797.3 ± 0.2	–	–	–	1111 ± 1	1089 ± 1	1061 ± 1
[1], x2 = 0.3907	783.5 ± 0.2	778 ± 0.2	772.4 ± 0.2	–	–	–	1101 ± 1	1079 ± 1	1053 ± 1
[1], x2 = 0.5028	756 ± 0.2	750.7 ± 0.2	745.3 ± 0.2	–	–	–	1093 ± 1	1071 ± 1	1046 ± 1
[1], x2 = 0.598	734.5 ± 0.2	729.3 ± 0.2	724.1 ± 0.2	–	–	–	1090 ± 2	1067 ± 2	1042 ± 2
[1], x2 = 0.6995	713.1 ± 0.2	708.1 ± 0.2	703.1 ± 0.2	–	–	–	1088 ± 2	1066 ± 2	1041 ± 2
[1], x2 = 0.803	693.3 ± 0.2	688.4 ± 0.2	683.5 ± 0.2	–	–	–	1089 ± 2	1067 ± 2	1043 ± 2
[1], x2 = 0.9005	675.8 ± 0.2	671.1 ± 0.2	666.4 ± 0.2	–	–	–	1093 ± 2	1071 ± 2	1047 ± 2
[1], x2 = 0.9514	667.3 ± 0.3	662.7 ± 0.3	658.1 ± 0.3	–	–	–	1096 ± 2	1074 ± 2	1051 ± 2
[2], x2 = 0	–	–	–	1.37241 ± 0.00061	1.36977 ± 0.00061	1.36712 ± 0.00062	–	–	–
[2], x2 = 0.0469	–	–	–	1.37193 ± 0.00063	1.36926 ± 0.00062	1.3666 ± 0.00061	–	–	–
[2], x2 = 0.0969	–	–	–	1.37157 ± 0.00063	1.3689 ± 0.00062	1.36622 ± 0.00062	–	–	–
[2], x2 = 0.1898	–	–	–	1.37105 ± 0.00064	1.36832 ± 0.00063	1.36559 ± 0.00062	–	–	–
[2], x2 = 0.2962	–	–	–	1.3706 ± 0.00066	1.36785 ± 0.00063	1.36513 ± 0.00062	–	–	–
[2], x2 = 0.3907	–	–	–	1.37053 ± 0.00065	1.36776 ± 0.00064	1.365 ± 0.00063	–	–	–
[2], x2 = 0.5028	–	–	–	1.37066 ± 0.00066	1.36789 ± 0.00065	1.36511 ± 0.00063	–	–	–
[2], x2 = 0.598	–	–	–	1.37101 ± 0.00067	1.36823 ± 0.00065	1.36547 ± 0.00063	–	–	–
[2], x2 = 0.6995	–	–	–	1.3718 ± 0.00067	1.36896 ± 0.00067	1.36611 ± 0.00066	–	–	–
[2], x2 = 0.803	–	–	–	1.37266 ± 0.00069	1.3698 ± 0.00068	1.36689 ± 0.00066	–	–	–
[2], x2 = 0.9005	–	–	–	1.37381 ± 0.00067	1.37096 ± 0.00068	1.36803 ± 0.00069	–	–	–
[2], x2 = 0.9514	–	–	–	1.3744 ± 0.00067	1.37157 ± 0.00068	1.36866 ± 0.00068	–	–	–

— the NIST ThermoML archive (doi:10.1021/je800077r)
